Data on four molecules can be found in PMC9095466 (Nature, 2022).

The structures appear in SMILES notation. Several values for one entry are separate records, joined by “and”; a condition that tells them apart may be missing. Equal values may be shown once. Where a name gives a salt, the structure may show the parent alone. Read-outs that look alike come from different tables or passages of the source. *1 amine or outer side, *2 acyl side, *3 side chain or, on linkers, in order; H or OH if unused. Where a SMILES comes first, the peptide text is derived from it. Bridges are numbered along the chain shown (N, C = ends). [ ]: non-standard residue; d: D form. The star is where a group is joined. X1 = CC[C@H](C)[C@@H](N[*:1])[C@@H](O)CC(=O)O[C@H](C(=O)[C@H](C)C(=O)[*:2])C(C)C; NMeY = CN[C@@H](Cc1ccc(O)cc1)C(=O)O; dNMeL = CN[C@H](CC(C)C)C(=O)O; Pyruvoyl = CC(=O)C(=O)* A value given as a limit tells only on which side of the number the result lay.

Series [1] relates to SARS-CoV-2. Set-up: method as in PMID 32142651, PMID 33844653. The settings on record: adenovirus hACE2 model; cited from earlier work.
For series [2], the system named is SARS-CoV-2. Further details: method as in PMID 33903855. To be noted: hospitalized patients with COVID-19; cited from earlier work.
Another series concerns SARS-CoV-2 (VIDO). Format: cell-based. Set-up: plaque assay titre, Figure 2c: unit not given beside the values. To be noted: for reduction of viral titre (plaque assay): supernatant of infected Calu-3 cells, vs DMSO-treated infected control; for plaque assay titre, Figure 2c: replicate columns, listed as Cm.
Another series addresses human TMPRSS2 (Homo sapiens, UniProt O15393). As to the kind of experiment: cell-based. The settings on record: for TMPRSS2 activity (%): Figure 1B, single experiments N1-N3; for inhibition at 0.01 µM: Vero C1008, read-out: inhibition of TMPRSS2 activity (reduction of substrate proteolysis).
Another series concerns the target T1, Recombinant human DESC1 (Homo sapiens, UniProt Q9UL52).
T1 construct: made in house
T1 sequence (Q9UL52 1-423): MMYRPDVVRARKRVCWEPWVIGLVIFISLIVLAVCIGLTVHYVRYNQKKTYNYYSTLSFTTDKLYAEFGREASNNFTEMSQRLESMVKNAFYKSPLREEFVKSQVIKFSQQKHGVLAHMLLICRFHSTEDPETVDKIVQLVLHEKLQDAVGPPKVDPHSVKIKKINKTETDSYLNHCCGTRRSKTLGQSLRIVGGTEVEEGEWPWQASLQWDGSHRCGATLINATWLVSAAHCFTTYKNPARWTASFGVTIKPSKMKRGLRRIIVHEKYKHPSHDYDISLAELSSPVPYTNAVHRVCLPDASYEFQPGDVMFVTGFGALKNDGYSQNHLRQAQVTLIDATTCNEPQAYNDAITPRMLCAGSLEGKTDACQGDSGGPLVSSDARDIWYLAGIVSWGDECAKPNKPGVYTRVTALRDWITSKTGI
As to the kind of experiment: Protease selectivity, Ki on recombinant protease. The series is classed as biochemical.

For a further series, the system named is Vero E6 cells. Put plainly: Cytotoxicity assay (Cell Titer-Glo 2.0) in Vero E6 cells. Format: cell-based. The settings on record: 10 μM compound, 24 h, relative to vehicle (DMSO 0.01%); single experiments N1-N4; 10 µM. As for the experimental part: (§1) Calu-3 and Vero E6 cells (2500 or 10,000 cells for samples, 80–20,000 cells for standard curve) were seeded in 96-well plates. Following a 24-h incubation at 37 °C, 5% CO2, cells were washed with D-PBS and compounds added (10 µM) for an additional 24-h incubation. Cellular viability was assessed using Cell Titer-Glo 2.0 Cell Viability Assay (Promega) according to the manufacturer’s instructions. The number of viable cells was extrapolated using the standard curve. Cellular viability in Vero E6 cells was expressed relative (%) to vehicle-treated cells. Data are from four independent experiments (mean ± s.d.).
A general note: ATP-based viability assays read luminescence as a measure of living cells.

Series [3] concerns SARS-CoV-2 lineage B strain (VIDO). As to the kind of experiment: microbe, parasite or virus in culture. The settings on record: for Nucleocapsid / dsRNA: Figure 2a, two replicates; for Nucleocapsid: DMSO control about 91-94; for dsRNA: DMSO control about 93-95; for inhibition at 0.1 µM: read-out: inhibition of SARS-CoV-2 infection. The series is classed as cell-based.
Series [4] has as its target T2, Recombinant human matriptase (Homo sapiens, UniProt Q9Y5Y6).
T2 construct: made in house
T2 sequence (Q9Y5Y6 1-855): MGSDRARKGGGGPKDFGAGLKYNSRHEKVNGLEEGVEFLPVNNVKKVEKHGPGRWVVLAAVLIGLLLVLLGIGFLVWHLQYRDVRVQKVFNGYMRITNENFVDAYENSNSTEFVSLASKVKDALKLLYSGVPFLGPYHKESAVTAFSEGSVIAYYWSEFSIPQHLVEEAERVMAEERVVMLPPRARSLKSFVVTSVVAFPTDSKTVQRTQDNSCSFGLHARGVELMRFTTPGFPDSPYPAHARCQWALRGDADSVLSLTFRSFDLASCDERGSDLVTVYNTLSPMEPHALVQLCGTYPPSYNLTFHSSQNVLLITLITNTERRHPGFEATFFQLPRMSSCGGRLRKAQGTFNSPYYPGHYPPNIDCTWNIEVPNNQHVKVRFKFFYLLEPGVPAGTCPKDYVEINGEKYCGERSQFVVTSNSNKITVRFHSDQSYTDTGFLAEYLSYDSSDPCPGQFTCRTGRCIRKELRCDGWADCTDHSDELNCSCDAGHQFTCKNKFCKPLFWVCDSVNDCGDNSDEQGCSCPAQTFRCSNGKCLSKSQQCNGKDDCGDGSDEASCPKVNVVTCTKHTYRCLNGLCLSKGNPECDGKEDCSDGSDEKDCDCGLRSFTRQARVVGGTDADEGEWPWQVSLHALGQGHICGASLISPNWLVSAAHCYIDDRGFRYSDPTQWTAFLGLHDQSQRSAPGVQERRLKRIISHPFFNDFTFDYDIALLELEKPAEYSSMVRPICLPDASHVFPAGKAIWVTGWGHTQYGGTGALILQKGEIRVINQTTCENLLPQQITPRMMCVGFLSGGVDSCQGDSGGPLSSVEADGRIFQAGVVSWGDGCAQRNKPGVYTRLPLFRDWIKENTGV
Put plainly: Protease selectivity, Ki on recombinant protease. The series is classed as biochemical.

Series [5] in a line: Cytotoxicity assay (Cell Titer-Glo 2.0) in Vero E6 cells. To be noted: African green monkey, % Viability of Vero E6 cells. The series is classed as cell-based. As to the method:
as §1

The subject of series [6] is SARS-CoV-2. Set-up: method as in PMID 33495306. The settings on record: pneumocyte-like cells; read-out: EC50 against SARS-CoV-2 infection; cited from earlier work.
The mark [7] stands for this setting: 10 nM compound, 24 h, vs untreated/vehicle TMPRSS2-expressing Vero E6 cells.
Where [8] appears, read: Severe acute respiratory syndrome coronavirus 2, Calu-3.

In general, inhibition refers to the percentage by which the read-out fell short of the control. As usually defined, the Ki is a measure of affinity in units of concentration, obtained from inhibition or displacement. As usually defined, the EC50 is the concentration at which the effect is half-maximal. As a reminder, the viability is a read-out of living cells in per cent, often relative to untreated cells.

Sequence of human TMPRSS2 (O15393 whole entry): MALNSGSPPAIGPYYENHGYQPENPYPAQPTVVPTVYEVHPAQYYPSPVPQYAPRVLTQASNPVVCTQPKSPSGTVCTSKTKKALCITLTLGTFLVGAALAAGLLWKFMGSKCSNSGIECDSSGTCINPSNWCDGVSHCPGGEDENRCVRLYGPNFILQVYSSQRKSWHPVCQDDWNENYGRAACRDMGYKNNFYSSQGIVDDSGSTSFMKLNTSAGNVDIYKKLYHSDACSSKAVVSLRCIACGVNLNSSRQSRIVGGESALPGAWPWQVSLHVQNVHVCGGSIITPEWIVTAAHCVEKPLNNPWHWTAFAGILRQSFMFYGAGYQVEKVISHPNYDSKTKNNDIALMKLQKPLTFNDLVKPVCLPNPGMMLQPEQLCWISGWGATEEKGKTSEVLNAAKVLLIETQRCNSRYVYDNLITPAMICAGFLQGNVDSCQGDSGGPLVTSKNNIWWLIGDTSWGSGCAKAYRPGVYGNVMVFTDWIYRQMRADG

For `CN(C)C(=O)COC(=O)Cc1ccc(OC(=O)c2ccc(NC(=N)N)cc2)cc1` [Camostat mesylate, reference compound], the protection against infection entry with SARS-CoV-2 [1] is reported as “no significant protection against infection was observed”. In addition, in the series on SARS-CoV-2 [2], the “effect on the time to recovery and incidence of death” value is on record as “no effect”. The “reduction of viral titre (plaque assay)” value is “approximately half-log” in the series on SARS-CoV-2 (VIDO) (40 nM) and “approximately 1.5 log” in the series with SARS-CoV-2 (VIDO) (200 nM). In addition, the “plaque assay titre, Figure 2c” value in the series with SARS-CoV-2 (VIDO) (40 nM) was 1000 (6×) and 11000 (2×) and 20000 and 10000 (2×) and 80000 and 330000 and 30000 and 170000; in the series with SARS-CoV-2 (VIDO) (200 nM) it was 1000 (9×) and 40000 and 10000 (3×) and 130000 and 30000 and 20000. Further, the “TMPRSS2 activity (%)” value on human TMPRSS2 (listed as Cm) was 51.0758% and 41.2255% and 43.3144%. Also, at human TMPRSS2 (setting [7]), the inhibition at 0.01 µM worked out at 56%. Besides, the Ki is 5.8 ± 3.4 nM on Recombinant human DESC1 (mean ± s.d., max concentration 10 µM, read-out: Ki DESC1); 7.88 nM and 7.73 nM and 1.85 nM on Recombinant human DESC1 (single experiments N1-N3, Figure 1D, read-out: Individual Ki, Desc1); 5.6 ± 1 nM in series [4] (mean ± s.d., max concentration 10 µM, read-out: Ki Matriptase); 6.79 nM and 5.15 nM and 4.98 nM in [4] (single experiments N1-N3, Figure 1D, read-out: Individual Ki, Matriptase). In addition, the “% Viability of Vero E6 cells” value with Vero E6 cells is 115.453% and 94.4731% and 96.0284% and 136.615%. Further, in [3] (listed as Cm), the Nucleocapsid was 8.612 and 24.2399. For the same molecule, in [3] (listed as Cm), the dsRNA is 17.4079 and 31.7604. In addition, the EC50 in series [3] (Severe acute respiratory syndrome coronavirus 2, Calu-3, read-out: SARS-CoV-2 VIDO Nucleocapsid EC50 ± SE) was 10.6 ± 8.4 nM. Moreover, the inhibition at 0.1 µM in series [3] (setting [8]) is more than 83%. For the same molecule, the “Figure 2b dose-response, Mean” value in series [3] (log [C] (nM) 0.20412) came out at 84.468; in series [3] (log [C] (nM) 0.90309) it was 76.973; in series [3] (log [C] (nM) 1.60206), 24.9288; in [3] (log [C] (nM) 2.30103), 0.8428; in series [3] (log [C] (nM) 3), 0.2267; in series [3] (log [C] (nM) -0.49485), 80.5882. For the same molecule, the “Figure 2b dose-response, Mean” value in [3] (log [C] (nM) -1.19382) was 94.4767.

On to `CC(NC(=O)C(CCC(N)=O)NC(=O)C(N)CCCNC(=N)N)C(=O)NC(CCCNC(=N)N)C(=O)c1nc2ccccc2s1` (stereo not shown) [Compound N-0100], for which the “inhibition of TMPRSS2 activity (reduction of substrate proteolysis)” value against human TMPRSS2 (setting [7]) is “did not inhibit”. Moreover, the “TMPRSS2 activity (%)” value on human TMPRSS2 was 113.572% and 108.611% and 101.926%. Besides, in the series on Vero E6 cells, the “% Viability of Vero E6 cells” value was 122.116% and 96.727% and 87.5998% and 134.594%. In series [3], the Nucleocapsid was 59.9825 and 100; the dsRNA was 53.1735 and 98.3497. For the same molecule, the inhibition at 0.1 µM in series [3] (setting [8]) is less than 25%.

For the molecule `N=C(N)NCCCCC(=O)NC(CCC(N)=O)C(=O)NC(CC1CCCCC1)C(=O)NC(CCCNC(=N)N)C(=O)c1nc2ccccc2s1` (stereo not shown) [Compound N-0678], the “TMPRSS2 activity (%)” value at human TMPRSS2 is 91.6478% and 104.935% and 97.8749%. Further, at human TMPRSS2 (setting [7]), the inhibition at 0.01 µM was 5%. Moreover, the viability at 24 h, 10 µM in series [5] came out at 113%. Also, in series [3], the Nucleocapsid is 70.7269 and 93.9071; the dsRNA was 64.9837 and 89.8579. Also, the inhibition at 0.1 µM in series [3] (setting [8]) was less than 23%.

Take `CC[C@H](C)[C@H]1NC(=O)[C@@H](NC(=O)[C@@H](CC(C)C)N(C)C(=O)[C@@H]2CCCN2C(=O)C(C)=O)[C@@H](C)OC(=O)[C@H](Cc2ccc(OC)cc2)N(C)C(=O)[C@@H]2CCCN2C(=O)[C@H](CC(C)C)NC(=O)[C@@H](C)C(=O)[C@H](C(C)C)OC(=O)C[C@@H]1O` [Plitidepsin] (Pyruvoyl-P[dNMeL]T[X1]LP[NMeY](Me); ester 3-C): the EC50 in the series on SARS-CoV-2 [6] was 1.62 nM.
